Data: US8940913B2, “Herbicides” (Syngenta Crop Protection, LLC, priority 2007, dated 2015)

Experiments:
Assay type in all cases: in vivo
[1] = system: Digitaria sanguinalis (DIGSA); assay: Post-emergence herbicidal activity, glasshouse pot test; conditions: 360 h, rate 125 g/ha, evaluated 15 days later, 100=total damage to plant, 0=no damage to plant
Protocol: (§1) Monocotyledonous and dicotyledonous test plants were sown in standard soil in pots. After cultivation for one day (pre-emergence) or after 10 days cultivation (post-emergence) under controlled conditions in a glasshouse, the plants were sprayed with an aqueous spray solution derived from the formulation of the technical active ingredient in 0.6 ml acetone and 45 ml formulation solution containing 10.6% Emulsogen EL (Registry number 61791-12-6), 42.2% N-methylpyrrolidone, 42.2% dipropylene glycol monomethyl ether (Registry number 34590-94-8) and 0.2% X-77 (Registry number 11097-66-8). The test plants were then grown in a greenhouse under optimum conditions until, 15 days later for post-emergence and 20 days for pre-emergence, the test was evaluated (100=total damage to plant; 0=no damage to plant). Test Plants: Alopecurus myosuroides (ALOMY), Avena fatua (AVEFA), Lolium perenne (LOLPE), Setaria faberi (SETFA), Digitaria sanguinalis (DIGSA), Echinochloa crus-galli (ECHCG)

Setaria faberi (SETFA) [2] = assay: as above; conditions: 360 h, rate 125 g/ha, evaluated 15 days later, 100=total damage to plant, 0=no damage to plant
Protocol: as §1

Avena fatua (AVEFA) [3] = assay: as above; conditions: 360 h, rate 125 g/ha, evaluated 15 days later, 100=total damage to plant, 0=no damage to plant
Protocol: as §1

Lolium perenne (LOLPE) [4] = assay: as above; conditions: 360 h, rate 125 g/ha, evaluated 15 days later, 100=total damage to plant, 0=no damage to plant
Protocol: as §1

[5] = system: Echinochloa crus-galli (ECHCG); assay: as above; conditions: 360 h, rate 125 g/ha, evaluated 15 days later, 100=total damage to plant, 0=no damage to plant
Protocol: as §1

[6] = system: Alopecurus myosuroides (ALOMY); assay: as above; conditions: 360 h, rate 125 g/ha, evaluated 15 days later, 100=total damage to plant, 0=no damage to plant
Protocol: as §1

[7] = system: Digitaria sanguinalis (DIGSA); assay: Pre-emergence herbicidal activity, glasshouse pot test; conditions: 480 h, rate 250 g/ha, evaluated 20 days later, 100=total damage to plant, 0=no damage to plant
Protocol: as §1

Setaria faberi (SETFA) [8] = assay: as above; conditions: 480 h, rate 250 g/ha, evaluated 20 days later, 100=total damage to plant, 0=no damage to plant
Protocol: as §1

Avena fatua (AVEFA) [9] = assay: as above; conditions: 480 h, rate 250 g/ha, evaluated 20 days later, 100=total damage to plant, 0=no damage to plant
Protocol: as §1

Lolium perenne (LOLPE) [10] = assay: as above; conditions: 480 h, rate 250 g/ha, evaluated 20 days later, 100=total damage to plant, 0=no damage to plant
Protocol: as §1

[11] = system: Echinochloa crus-galli (ECHCG); assay: as above; conditions: 480 h, rate 250 g/ha, evaluated 20 days later, 100=total damage to plant, 0=no damage to plant
Protocol: as §1

[12] = system: Alopecurus myosuroides (ALOMY); assay: as above; conditions: 480 h, rate 250 g/ha, evaluated 20 days later, 100=total damage to plant, 0=no damage to plant
Protocol: as §1

Row | Structure (SMILES) | pest or weed control at 125 g/ha [1] [%] | pest or weed control at 125 g/ha (Setaria faberi (SETFA) [2]) [%] | pest or weed control at 125 g/ha (Avena fatua (AVEFA) [3]) [%] | pest or weed control at 125 g/ha (Lolium perenne (LOLPE) [4]) [%] | pest or weed control at 125 g/ha [5] [%] | pest or weed control at 125 g/ha [6] [%] | pest or weed control at 250 g/ha [7] [%] | pest or weed control at 250 g/ha (Setaria faberi (SETFA) [8]) [%] | pest or weed control at 250 g/ha (Avena fatua (AVEFA) [9]) [%] | pest or weed control at 250 g/ha (Lolium perenne (LOLPE) [10]) [%] | pest or weed control at 250 g/ha [11] [%] | pest or weed control at 250 g/ha [12] [%]
1 | CCc1ccc(-c2ccc(Cl)c(F)c2)cc1C1=C(O)[C@H]2[C@@H](C1=O)[C@]1(C)CC[C@@]2(C)O1 [Compound T33] | 100 | 100 | 100 | 80 | 100 | 100 | 70 | 80 | 0 | 50 | 70 | 20
2 | CCc1ccc(-c2ccc(Cl)c(Cl)c2)cc1C1=C(O)[C@H]2[C@@H](C1=O)[C@]1(C)CC[C@@]2(C)O1 [Compound T29] | 100 | 100 | 90 | 50 | 100 | 90 | 40 | 50 | 0 | 30 | 0 | 10
3 | Cc1cc(-c2ccccc2)cc(C)c1C1C(=O)[C@@H]2[C@H](C1=O)[C@@]1(C)CC[C@]2(C)O1 (stereo partly drawn) [Compound T7] | 80 | 90 | 60 | 60 | 100 | 70 | 100 | 100 | 40 | 40 | 100 | 90
4 | CCc1ccc(-c2ccc(Cl)c(F)c2Cl)cc1C1=C(O)[C@H]2[C@@H](C1=O)[C@]1(C)CC[C@@]2(C)O1 [Compound T37] | 100 | 100 | 100 | 70 | 100 | 90 | 100 | 80 | 30 | 50 | 80 | 20
5 | Cc1cc(-c2ccc(C(F)(F)F)cc2)cc(C)c1C1C(=O)[C@@H]2[C@H](C1=O)[C@H]1CC[C@@H]2O1 (stereo partly drawn) [Compound T26] | 90 | 100 | 20 | 30 | 90 | 30 | 70 | 70 | 0 | 0 | 70 | 0
6 | Cc1cc(-c2ccccc2)cc(C)c1C1=C(OC(=O)C(C)(C)C)[C@H]2[C@@H](C1=O)[C@@H]1CC[C@H]2O1 (racemic) [Compound P1, (1RS,2SR,6RS,7SR)-4-(3,5-dimethylbiphenyl-4-yl)-5-oxo-10-oxa-tricyclo[5.2.1.0^2,6]dec-3-en-3-yl 2,2-dimethylpropionate] | 80 | 80 | 50 | 90 | 100 | 100 | 100 | 90 | 70 | 100 | 100 | 100
7 | CCc1ccc(-c2ccc(Cl)cc2)cc1C1=C(O)[C@H]2[C@@H](C1=O)[C@@H]1CC[C@H]2O1 [Compound T2] | 100 | 100 | 100 | 80 | 100 | 100 | 70 | 80 | 40 | 50 | 90 | 70
